Results: patent US20250236642A1, “PHARMACEUTICAL COMPOSITION FOR TREATMENT OR PREVENTION OF ADULT T-CELL LEUKEMIA” (NEC Corporation, priority 2022, published 2025)
Like-named read-outs stand apart in the source and are kept apart here. No end group written: not given here.

Experiments:
[1] = biological target: T1, HLA-A*02:01 molecule (Homo sapiens, UniProt P04439, D140Y/D185E/D98H/E176V/E277Q/G131W/G231S/I119V/I121R/I166T/I218V/L300P/L318F/N151K/N90K/P208A/P217A/Q86G/Q94H/R138H/R169H/T345S); assay: Binding of peptide to HLA-A*02:01 molecule using cell line T2
T1 construct: using a cell line T2 (purchased from ATCC) expressing an HLA-A*02:01 molecule; host or cells: T2 cell line
Protocol: Measurement of binding ability of a peptide to an HLA-A*02:01 molecule, which is a product of an HLA-A*02:01 gene, was performed using a cell line T2 (purchased from ATCC) expressing an HLA-A*02:01 molecule.
T2 cells and purified β2m were added to a serial dilution series of a peptide whose binding ability was to be measured, and then the mixture was incubated at 37° C. for four hours. HLA-A*02:01 molecules whose expression level increased in a peptide concentration-dependent manner by this time point were stained using an association-type specific fluorescently labeled monoclonal antibody BB7.2.
Thereafter, the amount of fluorescence per cell was measured with a flow cytometer, and a dissociation constant Kd value was calculated by the method disclosed in the article (Udaka et al., Immunogenetics, 51, 816-828, 2000) by the present inventor.

[2] = biological target: HLA-A*24:02 molecule (Homo sapiens, UniProt P04439, D101N/D140Y/D185E/E176V/E190D/F33S/G103R/G107R/I119L/I121M/I306V/K335N/L105A/L180Q/L300P/N151K/N90K/Q86E/Q94H/R106L/R138H/R89G/T104I/T345S/V100E/W191G/Y123F); assay: Binding of peptide to HLA-A*24:02 molecule using C1R-A24 cells
Protocol: Measurement of binding ability of a peptide to an HLA-A*24:02 molecule, which is a product of an HLA-A*24:02 gene, was performed using C1R-A24 cells expressing an HLA-A*24:02 molecule (Cells created by Professor Masafumi Takiguchi, Kumamoto University, was provided by Assistant Professor Masaki Yasukawa, Ehime University, with permission).
First, the C1R-A24 cells were exposed to acidic conditions at pH 3.3 for 30 seconds to dissociate and remove an endogenous peptide originally binding to an HLA-A*24:02 molecule and light chain β2m commonly associated with an HLA class I molecule. After neutralization, purified β2m was added to the C1R-A24 cells, and the mixture was added to a peptide dilution series and incubated on ice for four hours.
Thereafter, the number of MHC-peps for each C1R-A24 cell (proportional to a fluorescence intensity of the fluorescent antibody) was quantitatively measured using a fluorescence cell analyzer FACScan (Becton-Dickinson).

[3] = biological target: T2, HLA-A*02:06 molecule (Homo sapiens, UniProt P04439, D140Y/D185E/D98H/E176V/E277Q/F33Y/G131W/G231S/I119V/I121R/I166T/I218V/L300P/L318F/N151K/N90K/P208A/P217A/Q86G/Q94H/R138H/R169H/T345S); assay: Binding of peptide to HLA-A*02:06 molecule using RA2.6 cells
T2 construct: expressed in transfected cells; host or cells: RA2.6 cells (mouse TAP-deficient RMAS with HLA-A*02:06 cDNA)
Protocol: Measurement of binding ability of a peptide to an HLA-A*02:06 molecule, which is a product of an HLA-A*02:06 gene, was performed using RA2.6 cells (a cell line newly created at Kochi University) obtained by introducing cDNA of the HLA-A*02:06 gene into RMAS, which is a mouse transporter associated with antigen processing (TAP)-deficient cell line.
A fluorescently labeled monoclonal antibody BB7.2 that specifically recognizes a peptide binding type HLA-A*02:06 molecule was added thereto, and the mixture was incubated on ice for 20 minutes to stain the cells.

[4] = Table 2, dissociation constant Kd value (−log Kd value), >−3.0 = no significant binding ability, read-out: Measured value of allele A*02:01 (converted)
[5] = Table 2, dissociation constant Kd value (−log Kd value), >−3.0 = no significant binding ability, read-out: Measured value of allele A*24:02 (converted)
[6] = Table 4, Kd value (−log Kd value), smaller than −3 = binding property, read-out: Measured value of allele A*24:02 (converted)
[7] = Table 2, dissociation constant Kd value (−log Kd value), >−3.0 = no significant binding ability, read-out: Measured value of allele A*02:06 (converted)
[8] = Table 4, Kd value (−log Kd value), smaller than −3 = binding property, read-out: Measured value of allele A*02:01 (converted)

Kd [1, 4] [µM]	Kd [2, 5] [µM]	Kd [2, 6] [µM]	Kd [3, 7] [µM]	Sequence	other results
> 1000	> 1000	> 1000	> 1000	STGESAQTS [compound 71]	
> 1000	> 1000	> 1000	> 1000	THLDAGTVE [compound 75]	
> 1000	5.36	5.36	> 1000	TVLVPPRNL [compound 48]	Kd [1, 8]: > 1000 µM; Measured value of allele A*02:06 ([3]; Table 4, Kd value (−log Kd value), smaller than −3 = binding property): >−3
7.73	> 1000	> 1000	> 1000	VLPPARHST [compound 54]	
8.32	0.793		50.4	VMSHHGEKL [compound 19]	
0.583	0.692		1.36	YLYDPPTTI [compound 4]	

Further lines, the sequence ahead of its results:

Sequence	Kd [1, 4] [µM]	Kd [2, 5] [µM]	Kd [2, 6] [µM]	Kd [3, 7] [µM]	other results
TLTAWQHGL [compound 33]					Kd [1]: 1.11 µM; Kd [2]: 20.1 µM; Kd [3]: 1.42 µM
VFGRVMQID [compound 66]	> 1000	3.87		> 1000	
VLLQQFQTA [compound 15]	19.3	2.81		3.4	
VMQIDGVQP [compound 67]	> 1000	> 1000	> 1000	389	
YFFTVIFSF [compound 44]	> 1000	0.168		> 39.8	
YPGWHSTTI [compound 52]		2.18		> 1000	Kd [1]: > 1000 µM
YQLSPPITW [compound 32]					Kd [1]: 351 µM; Kd ([2]; Measured value of allele A*24:02, Table 2, dissociation constant Kd value (−log Kd value), >−3.0 = no significant binding ability): 1.72 µM; Kd ([2]; Measured value of allele A*24:02, Table 4, Kd value (−log Kd value), smaller than −3 = binding property): 0.172 µM; Kd [3]: 1.78 µM
YTYDPPTTI [compound 3]	0.336	3.11			Kd [1, 8]: 3.36 µM; Kd ([3]; Table 4, Kd value (−log Kd value), smaller than −3 = binding property, read-out: Measured value of allele A*02:06 (converted)): 0.669 µM
YVYDPPTTI [compound 2]	0.696	0.584		2.8	
